# Legend:
# Glu = Glu level in brain tissue by ELISA; assay type: in vivo; settings: PCPA insomnia mice
# Protocol: (§1) The pharmacodynamic evaluation of N1-dihydrocaffeoyl-N10-caffeoylspermidine for improving sleep effect was performed in a mouse insomnia model induced by injection of para-chlorophenylalanine (PCPA). The sedative hypnotic effect of N1-dihydrocaffeoyl-N10-caffeoylspermidine in mice with insomnia were evaluated by behavioral evaluation methods, such as recording of the number of autonomous activities, recording of body weight and inducing sleep experiments in mice with pentobarbital sodium. Brain tissues was obtained to determine the levels of neurotransmitters 5-HT, 5-HIAA, GABA and Glu, and to explore the possible mechanism of the sleep improving effect of N1-dihydrocaffeoyl-N10-caffeoylspermidine.
# (§2) After adaptive feeding, for 2 days of continuous modeling, the normal control group was given normal saline (0.1 mL/10 g/d), and the remaining groups received an intraperitoneal injection of PCPA suspension (400 mg/kg/d).
# (§3) The mice in each group were administered sequentially from 8:00 am to 12:00 am daily for 7 days.
# (§4) After administration for 7 days, the mice were sacrificed by cervical dislocation, the brains were removed by decapitation on an ice table, ground evenly with a tissue homogenizer, and normal saline was added to make 10% brain tissue homogenate. The homogenate was centrifuged at 3000 r/min for 15 min at 4° C., then supernatants were collected, and levels of neurotransmitters 5-HT, 5-HIAA, Glu, and GABA were determined by ELISA.
# Glu/GABA = Glu/GABA ratio in brain tissue; assay type: in vivo, mice; settings: for Glu/GABA: brain tissue, PCPA insomnia mice
# Protocol: as §1, §2, §3, §4
# 5-HT = 5-HT level in brain tissue by ELISA; assay type: in vivo, mice; settings: for 5-HT: brain tissue, PCPA insomnia mice
# Protocol: as §1, §2, §3, §4
# GABA = GABA level in brain tissue by ELISA; assay type: in vivo, mice; settings: for GABA: brain tissue, PCPA insomnia mice
# Protocol: as §1, §2, §3, §4
# [1] = system: PCPA-induced insomnia model of mice; assay: Righting reflex experiment with pentobarbital sodium: sleep latency and sleep duration; assay type: in vivo; settings: for Sleep duration / Sleep latency: pentobarbital sodium 50 mg/kg i.p. one hour after administration on the 7th day, PCPA insomnia mice
# Protocol: as §1
# (§5) Healthy SPF grade male ICR mice (18-22 g) were obtained, which were provided by the animal experimental center of Ningxia Medical University (laboratory animal license number SCXK (Ningxia Medical University) 2020-0001). The mice were adaptively housed in a standard SPF grade laboratory with the same animal housing conditions for each group: ambient temperature (25° C.), relative humidity (50%-60%). The mice were free access to food and water.
# as §2, §3
# (3) Righting reflex experiment to determine sleep duration: one hour after administration on the 7th day, mice in each group were intraperitoneally injected with pentobarbital sodium suspension (50 mg/kg), and the sleep latency and sleep duration of mice were recorded. (Sleep latency was recorded from the end of the intraperitoneal injection until the disappearance of the mouse righting reflex for more than 1 min; time from falling asleep to the recovery of the mouse righting reflex was recorded as sleep duration.)
# [2] = Body weight of mice, PCPA-induced insomnia model; assay type: in vivo; settings: for Body weight, after molding: after PCPA modeling, before administration; for Body weight, before molding: baseline before PCPA modeling; for Body weight, 3rd day of administration / Body weight, 7th day of administration: PCPA insomnia mice
# Protocol: as §1, §5, §2, §3
# (2) Body weight: the body weight of mice in each group was recorded before modeling, after modeling, on the 3rd, 7th day of drug administration, respectively.
# 5-HIAA = 5-HIAA level in brain tissue by ELISA; assay type: in vivo, mice; settings: for 5-HIAA: brain tissue, PCPA insomnia mice
# Protocol: as §1, §2, §3, §4
# [3] = system: PCPA-induced insomnia model of mice; assay: Number of autonomous activities of mice, PCPA-induced insomnia model; assay type: in vivo; settings: for Number of autonomous activities, before administration: baseline after PCPA modeling; for Number of autonomous activities, before administration / Number of autonomous activities, after last administration: number in 5 min; for Number of autonomous activities, after last administration: half an hour after administration on the 7th day, PCPA insomnia mice
# Protocol: as §1, §5, §2, §3
# (1) Number of autonomous activities: after grouping as above, the number of autonomous activities of mice in 5 min was recorded after successful modeling and half an hour after administration on the 7th day, respectively. Mice were acclimatized into the apparatus for 3 min before each recording.
# [4] = high dose 100 mg/kg/d for 7 days
# [5] = medium dose 40 mg/kg/d for 7 days
# [6] = groups at all doses (2, 40, 100 mg/kg/d), p<0.05
# [7] = groups at all doses (2, 40, 100 mg/kg/d), p<0.001
# [8] = 10 mg/kg/d for 7 days, 10 mg/kg/day
# [9] = 10 mg/kg/d for 7 days, listed as positive drug, 10 mg/kg/day
# [10] = 10 mg/kg/d for 7 days, listed as positive drug
# [11] = 10 mg/kg/d, listed as positive drug
# [12] = positive drug group (melatonin 10 mg/kg/d)
smiles,measurement,setting,value
"O=C(/C=C/c1ccc(O)c(O)c1)NCCCNCCCCNC(=O)CCc1ccc(O)c(O)c1 [(E)-3-(3,4-dihydroxyphenyl)-N-(3-((4-(3,4-dihydroxyphenyl)propanamido)butyl)amino) propyl) acrylamide]",Glu,Glu; [4],63.90 ± 2.88 μmol/gprot
same,Glu,Glu; low dose 2 mg/kg/d for 7 days,64.84 ± 4.18 μmol/gprot
same,Glu/GABA,Glu/GABA; [4],7.66 ± 1.03
same,Glu/GABA,Glu/GABA; low dose 2 mg/kg/d for 7 days,7.23 ± 1.90
same,Glu/GABA,Glu/GABA; [5],7.17 ± 1.20
same,Glu/GABA values in brain tissues compared with the model group,"Glu/GABA; groups at different doses (2, 40, 100 mg/kg/d), p<0.05",significantly reduced
same,5-HT,5-HT; [4],302.55 ± 17.00 ng/g
same,5-HT,5-HT; low dose 2 mg/kg/d for 7 days,271.37 ± 27.58 ng/g
same,5-HT,5-HT; [5],283.18 ± 9.86 ng/g
same,5-HT content in brain tissues compared with the model group,5-HT; [6],significantly increased
same,GABA,GABA; [4],9.66 ± 1.30 nmol/L
same,GABA,GABA; low dose 2 mg/kg/d for 7 days,8.53 ± 1.03 nmol/L
same,GABA,GABA; [5],9.69 ± 0.98 nmol/L
same,GABA content in brain tissues compared with the model group,"GABA; groups at different doses (2, 40, 100 mg/kg/d), p<0.01",significantly increased
same,Sleep duration compared with the model group,[1]; [6],increased significantly
same,Sleep duration,[1]; [4],17.5 ± 3.15 min
same,Sleep duration,[1]; low dose 2 mg/kg/d for 7 days,16.6 ± 9.53 min
same,Sleep duration,[1]; [5],19.9 ± 5.72 min
same,Sleep latency,[1]; [5],298.50 ± 29.08 s
same,"Body weight, after molding",[2]; high dose group (100 mg/kg/d),26.87 ± 2.71 g
same,"Body weight, after molding",[2]; low dose group (2 mg/kg/d),27.08 ± 3.74 g
same,"Body weight, after molding",[2]; medium dose group (40 mg/kg/d),27.33 ± 2.13 g
same,"Body weight, before molding",[2]; high dose group (100 mg/kg/d),26.18 ± 2.78 g
same,"Body weight, before molding",[2]; low dose group (2 mg/kg/d),26.74 ± 2.63 g
same,"Body weight, before molding",[2]; medium dose group (40 mg/kg/d),25.95 ± 1.99 g
same,Body weight on the 3rd day of administration compared with the model group,[2]; [7],increased significantly
same,"Body weight, 3rd day of administration",[2]; high dose 100 mg/kg/d,32.36 ± 2.39 g
same,"Body weight, 3rd day of administration",[2]; low dose 2 mg/kg/d,32.02 ± 2.63 g
same,"Body weight, 7th day of administration",[2]; low dose 2 mg/kg/d,31.83 ± 2.77 g
same,"Body weight, 3rd day of administration",[2]; medium dose 40 mg/kg/d,31.34 ± 1.76 g
same,"Body weight, 7th day of administration",[2]; medium dose 40 mg/kg/d,32.12 ± 1.44 g
same,5-HIAA,5-HIAA; [4],36.61 ± 1.84 ng/g
same,5-HIAA,5-HIAA; low dose 2 mg/kg/d for 7 days,33.79 ± 2.51 ng/g
same,5-HIAA,5-HIAA; [5],36.69 ± 2.00 ng/g
same,5-HIAA content in brain tissues compared with the model group,"5-HIAA; groups at all doses (2, 40, 100 mg/kg/d), p<0.01",significantly increased
same,"Number of autonomous activities, before administration",[3]; high dose group (100 mg/kg/d),248 ± 18.38
same,"Number of autonomous activities, before administration",[3]; low dose group (2 mg/kg/d),249 ± 22.30
same,"Number of autonomous activities, before administration",[3]; medium dose group (40 mg/kg/d),246 ± 16.13
same,Number of autonomous activities after last administration compared with before administration,[3]; [7],significantly decreased
same,"Number of autonomous activities, after last administration",[3]; [4],167 ± 43.35
same,"Number of autonomous activities, after last administration",[3]; low dose 2 mg/kg/d for 7 days,172 ± 26.39
same,"Number of autonomous activities, after last administration",[3]; [5],179 ± 17.43
"COc1ccc2[nH]cc(CCNC(C)=O)c2c1 [Positive drug, melatonin, reference compound]",Glu,Glu; [8],53.52 ± 7.23 μmol/gprot
same,Glu,Glu; [9],53.52±7.23 μmol/gprot
same,Glu/GABA,Glu/GABA; [8],8.51 ± 1.55
same,Glu/GABA,Glu/GABA; [9],significantly reduced
same,GABA,GABA; [8],6.89 ± 1.11 nmol/L
same,GABA,GABA; [9],6.89 ± 1.11 nmol/L
same,Sleep duration,[1]; 10 mg/kg/d for 7 days,26.4 ± 6.92 min
same,Sleep latency,[1]; 10 mg/kg/d for 7 days,226.00 ± 18.42 s
same,Sleep duration,[1]; [10],increased significantly
same,Sleep latency,[1]; [10],significantly reduced
same,"Body weight, 3rd day of administration",[2]; 10 mg/kg/d,31.33 ± 4.21 g
same,"Body weight, 7th day of administration",[2]; 10 mg/kg/d,33.67 ± 3.80 g
same,"Body weight, 3rd day of administration",[2]; [11],increased significantly
same,"Body weight, 7th day of administration",[2]; [11],increased significantly
same,"Body weight, after molding",[2]; [12],26.26 ± 3.39 g
same,"Body weight, before molding",[2]; [12],26.51 ± 2.23 g
same,5-HIAA,5-HIAA; [8],37.15 ± 1.56 ng/g
same,5-HIAA,5-HIAA; [9],significantly increased
same,"Number of autonomous activities, after last administration",[3]; 10 mg/kg/d for 7 days,174 ± 20.81
same,"Number of autonomous activities, after last administration",[3]; [10],significantly decreased
same,"Number of autonomous activities, before administration",[3]; [12],267 ± 15.15
